Reference: PMC5454391, “Improving 10-deacetylbaccatin III-10-β-O-acetyltransferase catalytic fitness for Taxol production” (Nature Communications, 2017)
Substitutions are numbered along the chain they refer to.

Legend:
Assay type in all cases: biochemical
DBAT of T. x media [1] = biological target: T1, DBAT of T. x media (Taxus x media, UniProt Q6SQJ5); assay: HPLC of baccatin III formed; conditions: 500 μM acetyl-CoA, 50 mM sodium acetate pH 5.5, 40 °C, 20 min
T1 sequence (Q6SQJ5 1-440): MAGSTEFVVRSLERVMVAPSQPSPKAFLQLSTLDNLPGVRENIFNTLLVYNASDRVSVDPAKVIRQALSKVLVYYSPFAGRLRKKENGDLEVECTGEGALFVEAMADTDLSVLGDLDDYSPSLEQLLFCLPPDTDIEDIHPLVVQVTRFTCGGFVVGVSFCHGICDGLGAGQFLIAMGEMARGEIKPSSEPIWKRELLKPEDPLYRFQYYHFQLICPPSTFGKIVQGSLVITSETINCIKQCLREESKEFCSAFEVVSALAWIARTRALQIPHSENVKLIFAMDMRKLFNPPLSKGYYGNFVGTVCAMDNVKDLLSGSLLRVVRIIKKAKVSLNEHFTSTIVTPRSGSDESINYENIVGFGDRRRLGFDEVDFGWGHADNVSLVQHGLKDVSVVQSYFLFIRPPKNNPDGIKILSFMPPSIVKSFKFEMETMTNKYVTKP

DBAT of T. canadensis [2] = biological target: T2, DBAT of T. canadensis (Taxus canadensis, UniProt B5KRF5); assay: HPLC of baccatin III formed; conditions: 500 μM acetyl-CoA, 50 mM sodium acetate pH 5.5, 40 °C, 20 min
T2 sequence (B5KRF5 1-440): T1 sequence (Q6SQJ5 1-440) with V9L, V58A, Q213R, C216R, S228F, S294L, V422M

[3] = biological target: T3, DBAT of T. wallichiana var. (Taxus mairei, UniProt B5KRG1); assay: HPLC of baccatin III formed; conditions: 500 μM acetyl-CoA, 50 mM sodium acetate pH 5.5, 40 °C, 20 min
T3 sequence (B5KRG1 1-440): T1 sequence (Q6SQJ5 1-440) with V58A, L123H, V158M, Q213R, C216R, I352V

[4] = biological target: T3, DBAT of T. wallichiana var.; assay: HPLC of Taxol formed; conditions: 500 μM acetyl-CoA, 50 mM sodium acetate pH 5.5, […], 180 min
DBAT of T. canadensis [5] = biological target: T2, DBAT of T. canadensis; assay: HPLC of Taxol formed; conditions: 500 μM acetyl-CoA, 50 mM sodium acetate pH 5.5, […], 180 min
DBAT of T. x media [6] = biological target: T1, DBAT of T. x media; assay: HPLC of Taxol formed; conditions: 500 μM acetyl-CoA, 50 mM sodium acetate pH 5.5, […], 180 min
DBAT of T. brevifolia = biological target: T4, DBAT of T. brevifolia (Taxus brevifolia, UniProt B5KRG4); assay: HPLC of Taxol formed; conditions: 500 μM acetyl-CoA, 50 mM sodium acetate pH 5.5, […], 180 min
T4 sequence (B5KRG4 1-440): T1 sequence (Q6SQJ5 1-440) with A52T, V58A, Q213R, C216H, S219T, I352M, L383I, S415L, M417L

Row | Structure (SMILES) | HPLC of baccatin III formed (DBAT of T. x media [1]) | HPLC of baccatin III formed (DBAT of T. canadensis [2]) | HPLC of baccatin III formed [3] | HPLC of Taxol formed [4] | HPLC of Taxol formed (DBAT of T. canadensis [5]) | HPLC of Taxol formed (DBAT of T. x media [6]) | HPLC of Taxol formed (DBAT of T. brevifolia)
1 | CC(=O)O[C@@]12CO[C@@H]1C[C@H](O)[C@@]1(C)C(=O)[C@H](O)C3=C(C)[C@@H](O)C[C@@](O)([C@@H](OC(=O)c4ccccc4)[C@H]21)C3(C)C [compound 1, 10-DAB] | T. x media origins showed similar conversion rates for 10-DAB | all other recombinant enzymes exhibited acetylation activity against 10-DAB and DT | all other recombinant enzymes exhibited acetylation activity against 10-DAB and DT | – | – | – | –
2 | CC(=O)O[C@@]12CO[C@@H]1C[C@H](O)[C@@]1(C)C(=O)[C@H](O)C3=C(C)[C@@H](OC(=O)[C@H](O)[C@@H](NC(=O)c4ccccc4)c4ccccc4)C[C@@](O)([C@@H](OC(=O)c4ccccc4)[C@H]21)C3(C)C [compound 2, DT] | – | – | – | all other recombinant enzymes exhibited acetylation activity against 10-DAB and DT | all other recombinant enzymes exhibited acetylation activity against 10-DAB and DT | all other recombinant enzymes exhibited acetylation activity against 10-DAB and DT | the DBATs of T. cuspidata and T. brevifolia showed the highest specific activities
